The values that follow come from patent publication US20200179286A1, “CARRIER STRUCTURE AND DRUG CARRIER, AND PREPARING METHODS THEREOF” (GENE'E TECH CO., LTD., priority 2018, published 2020).

This assay has as its system H. pylori. As to the kind of experiment: in vitro inhibition of H. pylori suspension (OD450 after 48 hours). The assay is classed as cell-based. Conditions: Helicobacter pylori, read-out: minimum inhibitory concentration. As for the experimental part:
FIGS. 7 and 8 show the results of the in vitro application of the drug carrier according to some embodiments of this invention. In the in vitro experiment, a suspension of H. pylori was obtained and respectively added with amoxicillin (with a minimum inhibitory concentration of about 0.5 μg/ml and the concentration was fixed at 0.5 μg/ml), samples 1, 5, A and E above. Next, the suspensions of H. pylori, after the addition of amoxicillin and the above samples, were further cultured for 48 hours, the OD450 of the suspension each was measured to determine the effect of inhibiting H. pylori. […] Through this test, it can be clearly seen that both the carrier structure and the drug carrier of the disclosure have the ability to inhibit H. pylori, especially the drug carrier with appropriate active substances has an obvious effect.

Values after ≈ are worked out from the molar mass of the structure shown.

For `CC1(C)S[C@@H]2[C@H](NC(=O)[C@H](N)c3ccc(O)cc3)C(=O)N2[C@H]1C(=O)O` [amoxicillin], the MIC is around 0.5 µg/mL (≈ 1.37 µM).
